Each compound was assayed against T1, human IL-17AA (Homo sapiens, UniProt Q16552) (assay: IL-8 release assay in human epithelial keratinocytes adult (HEKa)). Conditions: 3 ng/ml human IL-17AA + 10 ng/ml human TNFalpha, 68-72 h, IL-8 by HTRF, read-out: Rel EC50 L-8 release assay.
T1 construct: host or cells: HEK (human embryonic kidney) cells
T1 sequence (Q16552 24-155) 1: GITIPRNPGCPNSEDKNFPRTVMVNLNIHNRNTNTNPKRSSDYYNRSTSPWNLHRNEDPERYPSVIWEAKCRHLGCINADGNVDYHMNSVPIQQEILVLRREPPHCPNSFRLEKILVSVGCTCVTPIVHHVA
T1 sequence (Q16552 24-155) 2: T1 sequence (Q16552 24-155) 1
Assay type: cell-based
In short: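 IL-8 secretion, quantified by HTRF (665/620 nm) as percent of controls, served as the readout after 68–72 h culture of HEKa cells with compound plus IL-17AA (3 ng/ml final) and TNF-alpha (10 ng/ml final). Four-parameter logistic curves gave relative IC50 and Emax.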
Compound Cc1nn(C)c(C)c1-c1ccc(NC(=O)[C@@H](NC(=O)C2(F)CC2)[C@@H]2CCc3ccc(-c4ccnc(N5C[C@@H]6C[C@H]5CO6)c4)cc32)cc1 [Example 371, 1-fluoro-N-[(1S)-1-[(1R)-6-[2-[(1S,4S)-2-oxa-5-azabicyclo[2.2.1]heptan-5-yl]-4-pyridyl]indan-1-yl]-2-oxo-2-[4-(1,3,5-trimethylpyrazol-4-yl)anilino]ethyl] cyclopropanecarboxamide] has an EC50 of less than 100 nM. For Cc1nn(C)cc1-c1ccc(NC(=O)[C@@H](NC(=O)C2(F)CC2)[C@@H]2CCc3ccc(-c4ccnc(N5C[C@@H]6C[C@H]5CO6)c4)cc32)cc1 [Example 372, N-[(1S)-2-[4-(1,3-dimethylpyrazol-4-yl)anilino]-1-[(1R)-6-[2-[(1S,4S)-2-oxa-5-azabicyclo[2.2.1]heptan-5-yl]-4-pyridyl]indan-1-yl]-2-oxo-ethyl]-1-fluoro-cyclopropanecarboxamide], the EC50 was 100 to 1000 nM. Work on Cc1n[nH]c(C)c1-c1ccc(NC(=O)[C@@H](NC(=O)C2(F)CC2)[C@@H]2CCc3ccc(-c4cccc(N5C[C@@H]6C[C@H]5CN6)c4)cc32)cc1 [Example 373, N-[(1S)-1-[(1R)-6-[3-[(1S,4S)-2,5-diazabicyclo[2.2.1]heptan-2-yl]phenyl]indan-1-yl]-2-[4-(3,5-dimethyl-1H-pyrazol-4-yl)anilino]-2-oxo-ethyl]-1-fluoro-cyclopropanecarboxamide] yielded an EC50 of less than 100 nM. Work on Cc1n[nH]c(C)c1-c1ccc(NC(=O)[C@@H](NC(=O)OC2CC2)[C@@H]2CCc3ccc(-c4cc(N5C[C@@H]6C[C@H]5CO6)ncn4)cc32)cc1 [Example 374, cyclopropyl N-[(1S)-2-[4-(3,5-dimethyl-1H-pyrazol-4-yl)anilino]-1-[(1R)-6-[6-[(1S,4S)-2-oxa-5-azabicyclo[2.2.1]heptan-5-yl]pyrimidin-4-yl]indan-1-yl]-2-oxo-ethyl]carbamate] yielded an EC50 of 100 to 1000 nM. Work on Cc1n[nH]c(C)c1-c1ccc(NC(=O)[C@@H](NC(=O)C2(F)CC2)[C@@H]2CCc3ccc(-c4cc(N5CC(F)(F)C5)ncn4)cc32)cc1 [Example 375, N-[(1S)-1-[(1R)-6-[6-(3,3-difluoroazetidin-1-yl)pyrimidin-4-yl]indan-1-yl]-2-[4-(3,5-dimethyl-1H-pyrazol-4-yl)anilino]-2-oxo-ethyl]-1-fluoro-cyclopropanecarboxamide] yielded an EC50 of 100 to 1000 nM. Cc1n[nH]c(C)c1-c1ccc(NC(=O)[C@@H](NC(=O)C2(F)CC2)[C@@H]2CCc3ccc(-c4cc(N5CC(F)C5)ncn4)cc32)cc1 [Example 376, N-[(1S)-2-[4-(3,5-dimethyl-1H-pyrazol-4-yl)anilino]-1-[(1R)-6-[6-(3-fluoroazetidin-1-yl)pyrimidin-4-yl]indan-1-yl]-2-oxo-ethyl]-1-fluoro-cyclopropanecarboxamide] was tested, and the EC50 was 100 to 1000 nM. Cc1n[nH]c(C)c1-c1ccc(NC(=O)[C@@H](NC(=O)C2(F)CC2)[C@@H]2CCc3ccc(-c4cncc(N5C[C@@H]6C[C@H]5CO6)c4)cc32)cc1 [Example 377, N-[(1S)-2-[4-(3,5-dimethyl-1H-pyrazol-4-yl)anilino]-1-[(1R)-6-[5-[(1S,4S)-2-oxa-5-azabicyclo[2.2.1]heptan-5-yl]-3-pyridyl]indan-1-yl]-2-oxo-ethyl]-1-fluoro-cyclopropanecarboxamide] was tested, and the EC50 was less than 100 nM. In the case of Cc1cnn(C)c1-c1ccc(NC(=O)[C@@H](NC(=O)c2ccnn2C)[C@@H]2CCc3ccc(-c4ccnc(N5C[C@@H]6C[C@H]5CO6)c4)cc32)cc1 [Example 378, N-[(1S)-2-[4-(2,4-dimethylpyrazol-3-yl)anilino]-1-[(1R)-6-[2-[(1S,4S)-2-oxa-5-azabicyclo[2.2.1]heptan-5-yl]-4-pyridyl]indan-1-yl]-2-oxo-ethyl]-2-methyl-pyrazole-3-carboxamide], the EC50 is reported as less than 100 nM. In the case of Cc1cnn(C)c1-c1ccc(NC(=O)[C@@H](NC(=O)C2(F)CC2)[C@@H]2CCc3ccc(-c4cncc(N5C[C@@H]6C[C@H]5CO6)n4)cc32)cc1 [Example 379, N-[(1S)-2-[4-(2,4-dimethylpyrazol-3-yl)anilino]-1-[(1R)-6-[6-[(1S,4S)-2-oxa-5-azabicyclo[2.2.1]heptan-5-yl]pyrazin-2-yl]indan-1-yl]-2-oxo-ethyl]-1-fluoro-cyclopropanecarboxamide], the EC50 is reported as less than 100 nM. Cc1cnn(C)c1-c1ccc(NC(=O)[C@@H](NC(=O)c2ccnn2C)[C@@H]2CCc3ccc(-c4cncc(C5CC5)n4)cc32)cc1 [Example 380, N-[(1S)-1-[(1R)-6-(6-cyclopropylpyrazin-2-yl)indan-1-yl]-2-[4-(2,4-dimethylpyrazol-3-yl)anilino]-2-oxo-ethyl]-2-methyl-pyrazole-3-carboxamide] was tested, and the EC50 was 100 to 1000 nM. With Cc1n[nH]c(C)c1-c1ccc(NC(=O)[C@@H](NC(=O)C2(F)CC2)[C@@H]2CCc3ccc(-c4cnnc(C5CC5)c4)cc32)cc1 [Example 381, N-[(1S)-1-[(1R)-6-(6-cyclopropylpyridazin-4-yl)indan-1-yl]-2-[4-(3,5-dimethyl-1H-pyrazol-4-yl)anilino]-2-oxo-ethyl]-1-fluoro-cyclopropanecarboxamide] the EC50 was 100 to 1000 nM. Cc1cnn(C)c1-c1ccc(NC(=O)[C@@H](NC(=O)c2ccnn2C)[C@@H]2CCc3ccc(-c4ccnc(C(C)C)n4)cc32)cc1 [Example 382, N-[(1S)-2-[4-(2,4-dimethylpyrazol-3-yl)anilino]-1-[(1R)-6-(2-isopropylpyrimidin-4-yl)indan-1-yl]-2-oxo-ethyl]-2-methyl-pyrazole-3-carboxamide] showed an EC50 of 100 to 1000 nM. For Cc1cnn(C)c1-c1ccc(NC(=O)[C@@H](NC(=O)C2(F)CC2)[C@@H]2CCc3ccc(-c4cc(N5C[C@@H]6C[C@H]5CO6)cnn4)cc32)cc1 [Example 383, N-[(1S)-2-[4-(2,4-dimethylpyrazol-3-yl)anilino]-1-[(1R)-6-[5-[(1S,4S)-2-oxa-5-azabicyclo[2.2.1]heptan-5-yl]pyridazin-3-yl]indan-1-yl]-2-oxo-ethyl]-1-fluoro-cyclopropanecarboxamide], the EC50 was greater than 1000 nM. For Cc1n[nH]c(C)c1-c1ccc(NC(=O)[C@@H](NC(=O)C2(F)CC2)[C@@H]2CCc3ccc(-c4cc(C5CC5)cnn4)cc32)cc1 [Example 384, N-[(1S)-1-[(1R)-6-(5-cyclopropylpyridazin-3-yl)indan-1-yl]-2-[4-(3,5-dimethyl-1H-pyrazol-4-yl)anilino]-2-oxo-ethyl]-1-fluoro-cyclopropanecarboxamide], the EC50 was 100 to 1000 nM. Cc1cnn(C)c1-c1ccc(NC(=O)[C@@H](NC(=O)C2(F)CC2)[C@@H]2CCc3ccc(-c4cnnc(C5CC5)c4)cc32)cc1 [Example 385, N-[(1S)-1-[(1R)-6-(6-cyclopropylpyridazin-4-yl)indan-1-yl]-2-[4-(2,4-dimethylpyrazol-3-yl)anilino]-2-oxo-ethyl]-1-fluoro-cyclopropanecarboxamide] was tested, and the EC50 was 100 to 1000 nM. Compound Cc1cnn(C)c1-c1ccc(NC(=O)[C@@H](NC(=O)c2ccnn2C)[C@@H]2CCc3ccc(-c4cc(N5C[C@@H]6C[C@H]5CO6)ncn4)cc32)cc1 [Example 386, N-[(1S)-2-[4-(2,4-dimethylpyrazol-3-yl)anilino]-1-[(1R)-6-[6-[(1S,4S)-2-oxa-5-azabicyclo[2.2.1]heptan-5-yl]pyrimidin-4-yl]indan-1-yl]-2-oxo-ethyl]-2-methyl-pyrazole-3-carboxamide] has an EC50 of 100 to 1000 nM.
